Data set [1] has as its system NFκB, IFN, or TLR4 signaling pathways. Briefly: Reporter cell lines treated with peptides alone (no activating molecule). In kind it is cell-based. Conditions: various concentrations, 12, 24 and 48 hours. The protocol:
To investigate the ability of the peptides to interfere with the NFkB, IFN, and TLR4 pathways, reporter cell lines were used. To analyze whether the isolated peptides (without activation molecules) could induce any type of activation, the isolated peptides were tested in the cell lines during 12, 24, and 48 hours of treatment. […] As an example, FIGS. 2A, 2B, and 2C show an analysis of NFkB expression after stimulation with the synthesized peptides described in this report. The cells were treated with the synthesized peptides Pep 1, Pep 2, Pep 3, and Pep 4 at various concentrations for 12, 24, and 48 hours, without activating molecules. Luciferase was then measured after 12 hours of treatment (FIG. 2A), 24 hours of treatment (FIG. 2B), and 48 hours of treatment (FIG. 2C). […] TNF-α (200 ng/mL) was used as a positive control.

For data set [2], the system named is NFκB. Briefly: NFkB expression in Jurkart-Dual reporter cells, peptide pre-treatment then TNF-α. Format: cell-based. Particulars: peptide then TNF-α. The protocol: The assay was then performed using TNF-α as the activating molecule not only in the control, but after a pre-treatment with the synthesized peptides Pep 1, Pep 2, Pep 3, and Pep 4 at various concentrations. […] In the assays shown in FIGS. 3 A, B, and C, NFkB expression analysis was performed in Jurkart-Dual reporter cells. Cells were treated with peptides for 1 hour and TNF-α (200 ng/ml) was added. Luciferase was measured after 12 hours of treatment (FIG. 3A), 24 hours of treatment (FIG. 3B), and 48 hours of treatment (FIG. 3C).

The subject of data set [3] is NFκB. Briefly: NFkB expression in Jurkart-Dual reporter cells, TNF-α pre-treatment then peptides. In kind it is cell-based. The protocol: Then another assay was performed in which the cells were pretreated with TNF-α and the peptides were added later. […] In the assays shown in FIGS. 4 A, B, and C the analysis of NFkB expression was performed in Jurkart-Dual reporter cells. Cells were treated with TNF-α (200 ng/ml) for 1 hour and the peptides were added. Luciferase was measured after 12 hours of treatment (FIG. 4A), 24 hours of treatment (FIG. 4B), and 48 hours of treatment (FIG. 4C). TNF-α (200 ng/mL) was used as a positive control and rIL-10 (Recombinant Interleukin-10) (0.4 ng/mL) as a negative control. * P<0.05; ** P<0.005; *** P<0.0005.

The test system of data set [4] is TLR4 signaling pathway. Briefly: TLR4 signaling pathway (SEAP) in HEK cells, peptide pre-treatment then LPS. In kind it is cell-based. Particulars: 12 hours. The protocol:
(§1) HEK cells were used to investigate the ability of the peptides to reduce activation of the TLR4 signaling pathway after 12 hours of treatment.
(§2) In the assay shown in FIG. 7A, the cells were treated with peptides for 1 hour, then LPS (100 ng/ml) was added. SEAP production was measured after 12 hours of treatment. In the assay shown in FIG. 7B, the cells were treated with LPS (100 ng/ml) for 1 hour, then the peptides were added. SEAP production was measured after 12 hours of treatment. LPS (100 ng/mL) was used as positive control and IL-10 (0.4 ng/mL) as negative control. * P<0.05; ** P<0.005; *** P<0.0005.

Data set [5] concerns TLR4 signaling pathway. The data set can be described thus: TLR4 signaling pathway (SEAP) in HEK cells, LPS pre-treatment then peptides. Format: cell-based. Particulars: 12 hours. The protocol:
as §1, §2

Data set [6] concerns Dendritic cells from mice bone marrow. The data set can be described thus: Co-stimulatory molecules on bone marrow dendritic cells. Particulars: CD11c+ dendritic cells; 1 μM; 24 hours. Format: cell-based. The protocol: Dendritic cells from mice bone marrow were isolated to analyze the effect of synthesized peptides Pep 1, Pep 2, Pep 3, and Pep 4 at two concentrations, 1 μM, and 10 μM, on reducing cell activation. […] In the assays, CD11c+CD86 cells (FIG. 8A) and CD11c+CD40+ cells (FIG. 8B) were used after 24 hours of treatment. LPS (100 ng/mL) was used as a positive control. * P<0.05; ** P<0.005.

The nature of data set [7]: Dynamic Light Scattering (DLS), aggregation behavior in solution. In kind it is physicochemical. The protocol: The aggregation behavior of peptides Pep 1, Pep 2, Pep 3, and Pep 4 in solution was determined by Dynamic Light Scattering (DLS), as shown in FIG. 1E. All synthetic peptides were approximately 100% monomeric in solution. The measured hydrodynamic radius of the peptides was similar for Pep 1 (0.82 nm), Pep 2 ([…]), Pep 3 (0.79 nm), and Pep 4 (0.86 nm).

A further data set deals with IFN signaling pathway. Briefly: IFN signaling pathway (SEAP) in Jurkart-Dual reporter cells, peptide pre-treatment then IFN-α. Particulars: peptide then IFN-α, 48 hours. Format: cell-based. The protocol: Therefore, we cannot confirm whether they were able to affect the activation pathway (FIGS. 6A, B, and C) in the same or better way than the negative control (rIL-10). In the assays shown in FIGS. 5 (A, B, and C) and 6 (A, B, and C), IFN expression was analyzed in Jurkart-Dual reporter cells. In the assays shown in FIGS. 5 A, B, and C, cells were treated with peptides for 1 hour followed by the addition of IFN-α (104 EU/ml). Secreted Embryonic Alkaline Phosphatase (SEAP) production was measured after 12 hours of treatment (FIG. 5A), 24 hours of treatment (FIG. 5B), and 48 hours of treatment (FIG. 5C). In the assays shown in FIGS. 6 A, B, and C, cells were treated with IFN-α (104 EU/ml) for 1 hour, and then peptides were added. SEAP production was measured after (D) 12 hours of treatment (E) 24 hours of treatment, and (F) 48 hours of treatment. IFN-α (104 EU/mL) was used as a positive control and rIL-10 (0.4 ng/mL) as a negative control. * P<0.05.

Where [8] appears, read: peptide 1 hour, then LPS 100 ng/ml, 100 μM.
The mark [9] stands for this setting: LPS 100 ng/ml 1 hour, then peptide, 100 μM.

Regarding “Pep 2: synthetic peptide with affinity to the Interleukin-10 receptor, SEQ ID No 02, without disulfide bridges (HASSAVIKSSSGGGS; INTERLEUKIN-10 MIMETIC PEPTIDE)”, in data set [1], the “NFkB expression (luciferase)” value is on record as “unable to elicit any response”. Also, the NFκB activation result in the data set with NFκB [2] (0.1 μM, 12, 24 and 48 hours) is reported as “decreased NFκB activation”; in the data set with NFκB [2] (0.5 μM, 12, 24 and 48 hours) it was “decreased NFκB activation”; in the data set on NFκB [2] (1 μM, 12, 24 and 48 hours), “decreased NFκB activation”; with NFκB [2] (5 μM, 12, 24 and 48 hours) it was “decreased NFκB activation”; in the data set on NFκB [2] (10 μM, 12, 24 and 48 hours), “decreased NFκB activation”; in the data set on NFκB [2] (100 μM, 12, 24 and 48 hours), “decreased NFκB activation”. Also, the NFκB signaling entry in the data set with NFκB [3] (TNF-α 200 ng/ml 1 hour, then peptide, 100 μM, 12 hours) was “able to decrease NFκB signaling”; in the data set on NFκB [3] (TNF-α then peptide, 0.5 μM, 24 hours), “less activation of the analyzed signaling pathway”; in the data set on NFκB [3] (TNF-α then peptide, 1 μM, 12 hours) it was “able to decrease NFκB signaling”; in the data set on NFκB [3] (TNF-α then peptide, 1 μM, 24 hours) it was “less activation of the analyzed signaling pathway”; in the data set with NFκB [3] (TNF-α then peptide, 5 μM, 12 hours) it was “able to decrease NFκB signaling”; with NFκB [3] (TNF-α then peptide, 5 μM, 24 hours), “less activation of the analyzed signaling pathway”. For the same substance, the NFκB signaling result is on record as “able to decrease NFκB signaling” in the data set with NFκB [3] (TNF-α then peptide, 10 μM, 12 hours) and “less activation of the analyzed signaling pathway” with NFκB [3] (TNF-α then peptide, 100 μM, 24 hours). The TLR4 pathway activation result in the data set on TLR4 signaling pathway [4] (setting [8]) is “significantly reduced pathway activation”; in the data set with TLR4 signaling pathway [4] (peptide then LPS, 0.1 μM) it was “significantly reduced pathway activation”. Also, the “activation of the TLR4 pathway” value in the data set with TLR4 signaling pathway [5] (setting [9]) was “activation of the TLR4 pathway was more significantly reduced”; with TLR4 signaling pathway [5] (LPS then peptide, 0.01 μM), “activation of the TLR4 pathway was more significantly reduced”; in the data set on TLR4 signaling pathway [5] (LPS then peptide, 0.05 μM) it was “activation of the TLR4 pathway was more significantly reduced”; in the data set with TLR4 signaling pathway [5] (LPS then peptide, 0.1 μM) it was “activation of the TLR4 pathway was more significantly reduced”; with TLR4 signaling pathway [5] (LPS then peptide, 0.5 μM) it was “activation of the TLR4 pathway was more significantly reduced”; in the data set on TLR4 signaling pathway [5] (LPS then peptide, 1 μM), “activation of the TLR4 pathway was more significantly reduced”. Further, the “expression of CD40+” value in data set [6] was “decreased the expression of CD86+ and CD40+”. The “expression of CD86+” value in data set [6] is “decreased the expression of CD86+ and CD40+”.
In data set [7], “Pep 3: synthetic peptide with affinity to the Interleukin-10 receptor, SEQ ID No 03, linear chain (HCFDTQRMEFRMPPGGGS; INTERLEUKIN-10 MIMETIC PEPTIDE)” showed a hydrodynamic radius of 0.79 nm. The “NFkB expression (luciferase)” value in data set [1] is reported as “unable to elicit any response”. Moreover, the NFκB activation result in the data set on NFκB [2] (0.01 μM, 48 hours) is on record as “reducing pathway activation”; in the data set on NFκB [2] (0.05 μM, 12 hours), “reducing pathway activation”. Also, the NFκB signaling entry is “less activation of the analyzed signaling pathway” in the data set on NFκB [3] (TNF-α then peptide, 0.001 μM, 24 hours); “able to decrease NFκB signaling” in the data set with NFκB [3] (TNF-α then peptide, 0.005 μM, 12 hours); “less activation of the analyzed signaling pathway” in the data set with NFκB [3] (TNF-α then peptide, 0.005 μM, 24 hours); “less activation of the analyzed signaling pathway” with NFκB [3] (TNF-α then peptide, 10 μM, 24 hours). The “activation of the IFN signaling pathway” value in the data set with IFN signaling pathway (100 μM) is “activation of the pathway was reduced”. Moreover, the TLR4 pathway activation result in the data set on TLR4 signaling pathway [4] (setting [8]) was “significantly reduced pathway activation”. For the same substance, the “activation of the TLR4 pathway” value in the data set on TLR4 signaling pathway [5] (setting [9]) is listed as “activation of the TLR4 pathway was more significantly reduced”; in the data set on TLR4 signaling pathway [5] (LPS then peptide, 0.1 μM), “activation of the TLR4 pathway was more significantly reduced”; in the data set on TLR4 signaling pathway [5] (LPS then peptide, 0.5 μM) it was “activation of the TLR4 pathway was more significantly reduced”; with TLR4 signaling pathway [5] (LPS then peptide, 10 μM), “activation of the TLR4 pathway was more significantly reduced”.
In data set [7], “Pep 4: synthetic peptide with affinity to the Interleukin-10 receptor, SEQ ID No 04, linear chain (HCMTGSRATFPSAPGGGS; INTERLEUKIN-10 MIMETIC PEPTIDE)” returned a hydrodynamic radius of 0.86 nm. Besides, the “NFkB expression (luciferase)” value in data set [1] is “unable to elicit any response”. The NFκB activation result is reported as “reduced pathway activation” with NFκB [2] (0.005 μM, 48 hours); “reduced pathway activation” in the data set on NFκB [2] (0.01 μM, 48 hours); “reduced pathway activation” with NFκB [2] (0.05 μM, 48 hours). Further, the NFκB signaling entry with NFκB [3] (TNF-α then peptide, 0.5 μM, 12 hours) is reported as “able to decrease NFκB signaling”. The “activation of the IFN signaling pathway” value in the data set on IFN signaling pathway (0.05 μM) and in the data set on IFN signaling pathway (100 μM) was “activation of the pathway was reduced” throughout. Also, the TLR4 pathway activation result in the data set on TLR4 signaling pathway [4] (setting [8]) is listed as “significantly reduced pathway activation”; in the data set with TLR4 signaling pathway [4] (peptide then LPS, 1 μM) it was “significantly reduced pathway activation”; with TLR4 signaling pathway [4] (peptide then LPS, 5 μM), “significantly reduced pathway activation”; in the data set with TLR4 signaling pathway [4] (peptide then LPS, 10 μM), “significantly reduced pathway activation”. Further, the “activation of the TLR4 pathway” value with TLR4 signaling pathway [5] (setting [9]) was “activation of the TLR4 pathway was more significantly reduced”; in the data set with TLR4 signaling pathway [5] (LPS then peptide, 0.5 μM), “activation of the TLR4 pathway was more significantly reduced”; in the data set on TLR4 signaling pathway [5] (LPS then peptide, 1 μM) it was “activation of the TLR4 pathway was more significantly reduced”; in the data set on TLR4 signaling pathway [5] (LPS then peptide, 5 μM), “activation of the TLR4 pathway was more significantly reduced”; in the data set with TLR4 signaling pathway [5] (LPS then peptide, 10 μM), “activation of the TLR4 pathway was more significantly reduced”.

The record behind these values is patent US20220204577A1, “Synthetic Peptides With Affinity for the Interleukin-10 Receptor, Pharmaceutical Composition and Use Thereof as Immunomodulators for Treating Autoimmune, Inflammatory or Allergic Diseases” (Universidade Federal de Uberlândia, priority 2019, published 2022).
